Measurements reported in the supplement of paper PMC10307832.

How the values were obtained:
Assay in all cases: relative viability (nuclei count vs DMSO), 5 days (fraction); higher = more cells survive
AT9283 + Linsitinib = compound: O=C(Nc1c[nH]nc1-c1nc2ccc(CN3CCOCC3)cc2[nH]1)NC1CC1 [AT9283] + C[C@]1(O)C[C@@H](c2nc(-c3ccc4ccc(-c5ccccc5)nc4c3)c3c(N)nccn32)C1 [Linsitinib] (partner 1 µM)
Method in brief: (§1)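 Lung cancer cell lines were seeded in 1536-well plates and dosed by pin tool the next day, with either a single drug or a fixed anchor-drug dose combined with five library-drug doses (not always all listed) spaced in √10 steps. Five days later, one step fixed the cells and stained their nuclei (final 0.05% Triton X-100, 1% formaldehyde, 1 ug/ml Hoechst), and nuclei were counted on 4× images. Relative viability is the nuclei count in treated wells divided by the count in vehicle wells, and each value is the median of duplicate plates.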

Erlotinib + Alpelisib = compound: C#Cc1cccc(Nc2ncnc3cc(OCCOC)c(OCCOC)cc23)c1 [Erlotinib] + Cc1nc(NC(=O)N2CCC[C@H]2C(N)=O)sc1-c1ccnc(C(C)(C)C(F)(F)F)c1 [Alpelisib] (partner 2 µM)
Method in brief: as §1

AT9283 + Bortezomib = compound: O=C(Nc1c[nH]nc1-c1nc2ccc(CN3CCOCC3)cc2[nH]1)NC1CC1 [AT9283] + CC(C)C[C@H](NC(=O)[C@H](Cc1ccccc1)NC(=O)c1cnccn1)B(O)O [Bortezomib] (partner 0.002 µM)
Method in brief: as §1

Erlotinib + OSI-027 = compound: C#Cc1cccc(Nc2ncnc3cc(OCCOC)c(OCCOC)cc23)c1 [Erlotinib] + COc1cccc2cc(-c3nc([C@H]4CC[C@H](C(=O)O)CC4)n4ncnc(N)c34)[nH]c12 [OSI-027] (partner 0.5 µM)
Method in brief: as §1

AT9283 + Dasatinib = compound: O=C(Nc1c[nH]nc1-c1nc2ccc(CN3CCOCC3)cc2[nH]1)NC1CC1 [AT9283] + Cc1nc(Nc2ncc(C(=O)Nc3c(C)cccc3Cl)s2)cc(N2CCN(CCO)CC2)n1 [Dasatinib] (partner 0.075 µM)
Method in brief: as §1

Cell Line | relative viability (AT9283 + Linsitinib; first compound 0.003 µM) | relative viability (AT9283 + Linsitinib; first compound 0.03 µM) | relative viability (AT9283 + Linsitinib; first compound 0.09487 µM) | relative viability (AT9283 + Linsitinib; first compound 0.3 µM) | relative viability (Erlotinib + Alpelisib; first compound 0.02 µM) | relative viability (Erlotinib + Alpelisib; first compound 0.2 µM) | relative viability (Erlotinib + Alpelisib; first compound 0.6325 µM) | relative viability (Erlotinib + Alpelisib; first compound 2 µM) | relative viability (AT9283 + Bortezomib; first compound 0.003 µM) | relative viability (AT9283 + Bortezomib; first compound 0.03 µM) | relative viability (AT9283 + Bortezomib; first compound 0.09487 µM) | relative viability (AT9283 + Bortezomib; first compound 0.3 µM) | relative viability (Erlotinib + OSI-027; first compound 0.02 µM) | relative viability (Erlotinib + OSI-027; first compound 0.2 µM) | relative viability (Erlotinib + OSI-027; first compound 0.6325 µM) | relative viability (Erlotinib + OSI-027; first compound 2 µM) | relative viability (AT9283 + Dasatinib; first compound 0.003 µM) | relative viability (AT9283 + Dasatinib; first compound 0.03 µM) | relative viability (AT9283 + Dasatinib; first compound 0.09487 µM) | relative viability (AT9283 + Dasatinib; first compound 0.3 µM)
HCC-44 | 0.628 | 0.745 | 0.148 | 0.14 | 0.821 | 0.698 | 0.909 | 0.707 | 0.814 | 0.833 | 0.548 | 0.399 | 0.505 | 0.571 | 0.412 | 0.435 | – | – | – | –
HCC-78 | 0.475 | 0.41 | 0.172 | 0.185 | 0.353 | 0.337 | 0.305 | 0.186 | 0.425 | 0.472 | 0.237 | 0.245 | 0.333 | 0.359 | 0.379 | 0.281 | 0.291 | 0.322 | 0.201 | 0.216
HCC-366 | 0.71 | 0.319 | 0.0197 | 0.0206 | 0.46 | 0.25 | 0.402 | 0.209 | 1.02 | 0.921 | 0.129 | 0.0684 | 0.969 | 0.805 | 0.468 | 0.438 | 0.619 | 0.566 | 0.104 | 0.053
HCC-827 | 0.995 | 0.843 | 0.463 | 0.371 | 0.3 | 0.171 | 0.172 | 0.148 | 1.03 | 0.678 | 0.747 | 0.568 | 0.411 | 0.15 | 0.112 | 0.126 | 0.271 | 0.266 | 0.26 | 0.205
HOP-62 | 0.927 | 0.721 | 0.178 | 0.173 | – | 1.05 | 1.05 | 0.977 | 0.593 | 0.651 | 0.68 | 0.158 | 0.917 | 0.848 | 1.04 | 0.754 | 0.666 | 0.58 | 0.295 | 0.186
IA-LM | 0.626 | 0.432 | 0.311 | 0.102 | 0.984 | – | 0.7 | 0.789 | 0.748 | 0.367 | 0.112 | 0.0951 | – | – | – | – | – | – | – | –
LC-2-ad | 0.847 | 0.257 | 0.116 | 0.112 | 0.909 | 0.843 | 0.834 | 0.686 | 1.08 | 0.509 | 0.233 | 0.108 | – | 0.837 | 0.725 | 0.475 | 0.456 | 0.291 | 0.177 | 0.187
LK-2 | 0.341 | 0.351 | 0.129 | 0.127 | 0.932 | 0.976 | 1.33 | 1.03 | – | – | – | – | 0.202 | 0.211 | 0.21 | 0.192 | 0.228 | 0.197 | 0.135 | 0.142
NCI-H358 | 0.447 | 0.142 | 0.12 | 0.17 | 0.885 | 0.693 | 0.474 | 0.358 | – | – | – | – | 0.82 | 0.458 | 0.407 | 0.152 | 0.147 | 0.1 | 0.0732 | 0.0691
